Measurements taken from article PMC11167047 (Cell Death Discovery, 2024).

What was measured:
Assay in all cases: kinome screen (33PanQinase)
Format in all cases: biochemical
[1] = molecular target: T1, VEGFR3 (Homo sapiens, UniProt P35916)
T1 construct: purchased Reaction Biology Europe GmbH (formerly ProQinase)
Procedure: (§1) The Kinome Screening was performed by Reaction Biology Europe GmbH (http://reactionbiology.com; Freiburg i. Br., Germany).

[2] = molecular target: T2, MAP4K5 (Homo sapiens, UniProt Q9Y4K4)
T2 construct: purchased Reaction Biology Europe GmbH (formerly ProQinase)
Procedure: as §1

[3] = molecular target: T3, AKT2 (Homo sapiens, UniProt P31751)
T3 construct: purchased Reaction Biology Europe GmbH (formerly ProQinase)
Procedure: as §1

[4] = molecular target: T4, CLK4 (Homo sapiens, UniProt Q9HAZ1)
T4 construct: purchased Reaction Biology Europe GmbH (formerly ProQinase)
Procedure: as §1

[5] = molecular target: T5, MYLK (Homo sapiens, UniProt Q15746)
T5 construct: purchased Reaction Biology Europe GmbH (formerly ProQinase)
Procedure: as §1

[6] = molecular target: T6, MEK1 (Homo sapiens, UniProt Q02750)
T6 construct: purchased Reaction Biology Europe GmbH (formerly ProQinase)
Procedure: as §1

[7] = molecular target: T7, SRMS (Homo sapiens, UniProt Q9H3Y6)
T7 construct: purchased Reaction Biology Europe GmbH (formerly ProQinase)
Procedure: as §1

[8] = molecular target: T8, ITK (Homo sapiens, UniProt Q08881)
T8 construct: purchased Reaction Biology Europe GmbH (formerly ProQinase)
T8 sequence (Q08881 1-620): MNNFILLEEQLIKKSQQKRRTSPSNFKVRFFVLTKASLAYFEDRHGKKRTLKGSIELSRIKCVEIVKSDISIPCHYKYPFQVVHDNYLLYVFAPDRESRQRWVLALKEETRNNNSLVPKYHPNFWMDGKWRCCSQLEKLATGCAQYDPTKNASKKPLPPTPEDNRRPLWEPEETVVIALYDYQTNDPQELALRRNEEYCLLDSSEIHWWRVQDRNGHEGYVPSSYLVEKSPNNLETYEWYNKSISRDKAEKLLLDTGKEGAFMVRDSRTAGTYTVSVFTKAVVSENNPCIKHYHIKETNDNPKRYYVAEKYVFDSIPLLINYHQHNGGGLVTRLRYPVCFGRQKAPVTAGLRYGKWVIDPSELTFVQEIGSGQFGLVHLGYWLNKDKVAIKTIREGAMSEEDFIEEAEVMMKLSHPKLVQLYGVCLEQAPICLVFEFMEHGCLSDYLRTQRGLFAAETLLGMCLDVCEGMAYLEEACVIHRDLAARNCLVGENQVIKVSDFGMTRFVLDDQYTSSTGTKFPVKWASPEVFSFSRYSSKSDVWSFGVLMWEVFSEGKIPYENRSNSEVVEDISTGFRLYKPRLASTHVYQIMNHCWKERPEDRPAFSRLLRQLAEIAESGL
Procedure: as §1

[9] = molecular target: T9, CK1γ2 (Homo sapiens, UniProt P78368)
T9 construct: purchased Reaction Biology Europe GmbH (formerly ProQinase)
Procedure: as §1

[10] = molecular target: T10, GSK3α (Homo sapiens, UniProt P49840)
T10 construct: purchased Reaction Biology Europe GmbH (formerly ProQinase)
Procedure: as §1

[11] = molecular target: T11, MAPKAPK2 (Homo sapiens, UniProt P49137)
T11 construct: purchased Reaction Biology Europe GmbH (formerly ProQinase)
Procedure: as §1

[12] = molecular target: T12, MELK (Homo sapiens, UniProt Q14680)
T12 construct: purchased Reaction Biology Europe GmbH (formerly ProQinase)
Procedure: as §1

[13] = molecular target: T13, EPHA1 (Homo sapiens, UniProt P21709)
T13 construct: purchased Reaction Biology Europe GmbH (formerly ProQinase)
T13 sequence (P21709 26-976): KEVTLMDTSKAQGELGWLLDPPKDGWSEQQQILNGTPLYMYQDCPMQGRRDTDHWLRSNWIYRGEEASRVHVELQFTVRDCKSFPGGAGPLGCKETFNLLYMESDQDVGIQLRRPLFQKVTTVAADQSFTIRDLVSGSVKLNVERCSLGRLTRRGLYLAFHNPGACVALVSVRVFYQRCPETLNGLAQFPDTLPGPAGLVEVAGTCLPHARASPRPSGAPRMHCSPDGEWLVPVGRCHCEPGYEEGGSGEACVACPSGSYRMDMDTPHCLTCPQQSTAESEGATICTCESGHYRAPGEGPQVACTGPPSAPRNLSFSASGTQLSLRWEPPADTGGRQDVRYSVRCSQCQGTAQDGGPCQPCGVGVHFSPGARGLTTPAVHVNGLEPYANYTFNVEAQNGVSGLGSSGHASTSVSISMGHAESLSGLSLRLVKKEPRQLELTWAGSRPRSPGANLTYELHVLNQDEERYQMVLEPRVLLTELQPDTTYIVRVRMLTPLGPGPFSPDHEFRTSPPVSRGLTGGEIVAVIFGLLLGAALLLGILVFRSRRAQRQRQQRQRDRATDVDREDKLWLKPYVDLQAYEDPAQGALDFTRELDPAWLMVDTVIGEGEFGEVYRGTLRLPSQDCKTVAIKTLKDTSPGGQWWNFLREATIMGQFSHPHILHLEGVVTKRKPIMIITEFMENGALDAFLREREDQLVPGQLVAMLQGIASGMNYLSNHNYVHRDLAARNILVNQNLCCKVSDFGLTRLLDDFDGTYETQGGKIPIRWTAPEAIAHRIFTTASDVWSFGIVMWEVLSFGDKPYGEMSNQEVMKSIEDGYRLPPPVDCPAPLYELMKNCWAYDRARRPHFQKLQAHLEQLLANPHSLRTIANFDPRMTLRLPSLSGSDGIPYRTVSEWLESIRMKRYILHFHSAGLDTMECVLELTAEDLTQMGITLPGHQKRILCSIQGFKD
Procedure: as §1

T12 sequence (Q14680 whole entry): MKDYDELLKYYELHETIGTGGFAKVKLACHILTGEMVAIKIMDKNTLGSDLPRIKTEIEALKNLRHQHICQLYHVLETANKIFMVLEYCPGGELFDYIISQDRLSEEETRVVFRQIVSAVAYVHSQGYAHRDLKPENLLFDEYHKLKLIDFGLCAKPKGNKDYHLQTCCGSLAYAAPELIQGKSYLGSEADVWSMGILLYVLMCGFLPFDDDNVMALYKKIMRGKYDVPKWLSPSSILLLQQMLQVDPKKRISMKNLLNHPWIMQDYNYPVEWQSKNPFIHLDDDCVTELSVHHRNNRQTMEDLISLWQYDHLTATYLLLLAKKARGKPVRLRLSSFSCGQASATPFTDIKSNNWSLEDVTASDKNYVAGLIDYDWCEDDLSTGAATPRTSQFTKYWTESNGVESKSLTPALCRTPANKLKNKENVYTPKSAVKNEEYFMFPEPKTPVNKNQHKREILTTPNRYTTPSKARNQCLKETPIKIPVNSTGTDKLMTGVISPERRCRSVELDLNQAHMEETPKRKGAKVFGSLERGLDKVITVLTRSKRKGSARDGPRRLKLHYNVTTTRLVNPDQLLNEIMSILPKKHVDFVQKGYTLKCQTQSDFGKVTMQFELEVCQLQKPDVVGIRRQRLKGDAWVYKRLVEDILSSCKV
T6 sequence (Q02750 whole entry): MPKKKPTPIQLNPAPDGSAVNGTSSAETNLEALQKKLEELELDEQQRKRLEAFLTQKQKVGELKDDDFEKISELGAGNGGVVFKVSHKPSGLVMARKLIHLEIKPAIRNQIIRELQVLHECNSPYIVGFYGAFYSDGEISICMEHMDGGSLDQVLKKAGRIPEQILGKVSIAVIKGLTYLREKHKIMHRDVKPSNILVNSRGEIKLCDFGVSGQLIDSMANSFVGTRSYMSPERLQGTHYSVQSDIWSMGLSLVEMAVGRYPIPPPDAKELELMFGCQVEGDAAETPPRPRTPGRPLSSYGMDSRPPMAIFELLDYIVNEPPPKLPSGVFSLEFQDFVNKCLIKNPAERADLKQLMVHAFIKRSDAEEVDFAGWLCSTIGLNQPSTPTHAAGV
T4 sequence (Q9HAZ1 whole entry): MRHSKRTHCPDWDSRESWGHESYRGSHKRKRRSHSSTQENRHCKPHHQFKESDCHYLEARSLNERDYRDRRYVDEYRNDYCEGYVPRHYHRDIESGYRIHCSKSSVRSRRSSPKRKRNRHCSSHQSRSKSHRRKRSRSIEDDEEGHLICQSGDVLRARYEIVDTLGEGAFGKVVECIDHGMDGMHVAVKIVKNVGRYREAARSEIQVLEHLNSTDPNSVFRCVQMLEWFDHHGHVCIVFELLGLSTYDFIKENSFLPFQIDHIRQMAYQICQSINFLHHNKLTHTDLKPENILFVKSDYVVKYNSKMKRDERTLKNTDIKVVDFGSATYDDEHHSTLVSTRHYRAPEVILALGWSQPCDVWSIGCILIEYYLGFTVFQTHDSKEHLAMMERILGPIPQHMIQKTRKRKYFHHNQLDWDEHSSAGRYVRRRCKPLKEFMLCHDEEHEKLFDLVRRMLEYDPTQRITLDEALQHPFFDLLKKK
T10 sequence (P49840 whole entry): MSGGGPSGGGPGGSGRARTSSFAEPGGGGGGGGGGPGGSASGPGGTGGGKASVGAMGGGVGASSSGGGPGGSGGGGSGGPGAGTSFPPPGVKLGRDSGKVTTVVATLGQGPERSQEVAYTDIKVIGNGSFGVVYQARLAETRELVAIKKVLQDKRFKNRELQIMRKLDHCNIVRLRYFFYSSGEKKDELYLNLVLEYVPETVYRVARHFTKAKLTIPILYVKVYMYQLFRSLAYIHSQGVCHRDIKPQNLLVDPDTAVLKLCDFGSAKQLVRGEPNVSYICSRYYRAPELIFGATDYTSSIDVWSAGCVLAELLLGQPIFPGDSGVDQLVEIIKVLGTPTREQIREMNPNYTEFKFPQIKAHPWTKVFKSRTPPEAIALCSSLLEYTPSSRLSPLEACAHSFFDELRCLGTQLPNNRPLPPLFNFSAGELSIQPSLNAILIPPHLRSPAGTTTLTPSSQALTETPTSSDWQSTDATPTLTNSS
T7 sequence (Q9H3Y6 whole entry): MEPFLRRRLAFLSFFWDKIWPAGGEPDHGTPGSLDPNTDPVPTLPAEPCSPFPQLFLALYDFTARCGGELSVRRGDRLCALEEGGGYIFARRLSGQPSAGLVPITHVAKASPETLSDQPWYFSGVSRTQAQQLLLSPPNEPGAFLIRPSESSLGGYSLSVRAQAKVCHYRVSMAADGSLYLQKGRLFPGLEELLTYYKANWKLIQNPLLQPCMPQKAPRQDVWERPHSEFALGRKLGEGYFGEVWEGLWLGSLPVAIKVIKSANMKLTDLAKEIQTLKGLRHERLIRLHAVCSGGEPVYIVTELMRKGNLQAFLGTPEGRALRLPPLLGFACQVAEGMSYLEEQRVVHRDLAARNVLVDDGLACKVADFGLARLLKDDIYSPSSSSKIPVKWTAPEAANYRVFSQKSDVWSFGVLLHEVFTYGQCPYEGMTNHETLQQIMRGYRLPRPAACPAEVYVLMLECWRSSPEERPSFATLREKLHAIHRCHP
T1 sequence (P35916 25-1363): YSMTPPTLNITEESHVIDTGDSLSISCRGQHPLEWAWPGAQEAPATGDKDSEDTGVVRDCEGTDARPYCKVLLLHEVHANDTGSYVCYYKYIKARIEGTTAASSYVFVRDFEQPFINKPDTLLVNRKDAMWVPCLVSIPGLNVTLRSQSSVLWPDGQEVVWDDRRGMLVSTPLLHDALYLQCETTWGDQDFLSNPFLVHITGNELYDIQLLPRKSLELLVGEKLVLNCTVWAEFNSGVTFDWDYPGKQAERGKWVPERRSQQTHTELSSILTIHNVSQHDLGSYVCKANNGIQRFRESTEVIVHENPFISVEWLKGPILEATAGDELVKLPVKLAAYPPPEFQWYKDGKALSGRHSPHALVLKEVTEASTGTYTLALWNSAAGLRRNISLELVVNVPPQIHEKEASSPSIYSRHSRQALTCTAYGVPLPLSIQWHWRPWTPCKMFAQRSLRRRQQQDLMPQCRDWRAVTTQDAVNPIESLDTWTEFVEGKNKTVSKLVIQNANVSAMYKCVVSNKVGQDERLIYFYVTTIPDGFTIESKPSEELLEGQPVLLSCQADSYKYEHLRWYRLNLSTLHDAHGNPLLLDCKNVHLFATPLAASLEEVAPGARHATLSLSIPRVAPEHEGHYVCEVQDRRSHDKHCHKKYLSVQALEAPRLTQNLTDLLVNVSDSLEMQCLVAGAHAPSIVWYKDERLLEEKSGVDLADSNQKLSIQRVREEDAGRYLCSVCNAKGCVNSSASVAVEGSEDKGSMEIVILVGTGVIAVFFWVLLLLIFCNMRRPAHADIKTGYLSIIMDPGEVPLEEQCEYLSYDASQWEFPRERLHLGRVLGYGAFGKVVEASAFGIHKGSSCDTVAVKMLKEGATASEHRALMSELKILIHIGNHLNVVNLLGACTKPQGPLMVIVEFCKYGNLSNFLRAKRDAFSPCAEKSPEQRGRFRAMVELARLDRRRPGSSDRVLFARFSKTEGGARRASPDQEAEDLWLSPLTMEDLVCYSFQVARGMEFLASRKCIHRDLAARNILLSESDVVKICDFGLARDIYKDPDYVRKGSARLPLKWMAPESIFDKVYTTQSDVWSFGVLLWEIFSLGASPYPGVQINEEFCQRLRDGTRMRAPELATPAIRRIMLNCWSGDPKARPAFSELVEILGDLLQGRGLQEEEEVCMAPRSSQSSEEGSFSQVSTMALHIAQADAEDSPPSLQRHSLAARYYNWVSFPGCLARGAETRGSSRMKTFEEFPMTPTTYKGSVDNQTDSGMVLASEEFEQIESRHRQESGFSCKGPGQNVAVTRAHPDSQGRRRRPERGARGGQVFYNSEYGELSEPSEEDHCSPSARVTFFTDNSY
T3 sequence (P31751 whole entry): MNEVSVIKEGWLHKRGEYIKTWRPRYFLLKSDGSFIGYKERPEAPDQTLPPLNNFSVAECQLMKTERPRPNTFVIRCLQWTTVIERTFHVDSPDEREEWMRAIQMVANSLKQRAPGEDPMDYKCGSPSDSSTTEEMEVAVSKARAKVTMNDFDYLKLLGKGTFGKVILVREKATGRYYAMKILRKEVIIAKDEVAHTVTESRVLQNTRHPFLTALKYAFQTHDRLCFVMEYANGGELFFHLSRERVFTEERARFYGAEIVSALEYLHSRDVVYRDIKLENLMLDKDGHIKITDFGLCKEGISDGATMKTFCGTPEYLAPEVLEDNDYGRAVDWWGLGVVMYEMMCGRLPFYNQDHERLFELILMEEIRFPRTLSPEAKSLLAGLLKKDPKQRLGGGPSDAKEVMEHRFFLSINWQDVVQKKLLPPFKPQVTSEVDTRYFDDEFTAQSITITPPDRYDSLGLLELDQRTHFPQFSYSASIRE
T11 sequence (P49137 whole entry): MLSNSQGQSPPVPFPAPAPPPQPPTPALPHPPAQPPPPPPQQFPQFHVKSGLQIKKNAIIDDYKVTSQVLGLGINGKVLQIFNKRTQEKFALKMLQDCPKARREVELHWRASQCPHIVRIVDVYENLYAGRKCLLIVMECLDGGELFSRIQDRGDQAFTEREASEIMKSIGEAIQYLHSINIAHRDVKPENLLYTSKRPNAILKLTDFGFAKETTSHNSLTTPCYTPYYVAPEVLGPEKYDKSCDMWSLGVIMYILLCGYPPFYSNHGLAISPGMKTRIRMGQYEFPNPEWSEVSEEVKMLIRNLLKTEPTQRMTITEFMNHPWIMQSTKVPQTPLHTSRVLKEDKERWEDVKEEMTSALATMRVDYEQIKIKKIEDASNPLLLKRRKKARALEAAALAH

Row | Structure (SMILES) | residual kinase activity ([1]; 0.3 µM) | residual kinase activity ([2]; 0.3 µM) | residual kinase activity ([3]; 0.3 µM) | residual kinase activity ([4]; 0.3 µM) | residual kinase activity ([5]; 0.3 µM) | residual kinase activity ([6]; 0.3 µM) | residual kinase activity ([7]; 0.3 µM) | residual kinase activity ([8]; 0.3 µM) | residual kinase activity ([9]; 0.3 µM) | residual kinase activity ([10]; 0.3 µM) | residual kinase activity ([11]; 0.3 µM) | residual kinase activity ([12]; 0.3 µM) | residual kinase activity ([13]; 0.3 µM) | also measured
1 | COc1ccnc2[nH]cc(-c3cc(N)nc(N)c3)c12 [meriolin 16] | 77 % of control | 52 % of control | 79 % of control | 0 % of control | 71 % of control | 102 % of control | 93 % of control | 88 % of control | 30 % of control | 93 % of control | 95 % of control | 14 % of control | 116 % of control | residual kinase activity ([1]; 0.03 µM): 90 % of control; residual kinase activity ([2]; 0.03 µM): 87 % of control; residual kinase activity ([3]; 0.03 µM): 98 % of control; residual kinase activity ([4]; 0.03 µM): 3 % of control; residual kinase activity ([5]; 0.03 µM): 103 % of control; residual kinase activity ([6]; 0.03 µM): 108 % of control; residual kinase activity ([7]; 0.03 µM): 101 % of control; residual kinase activity ([8]; 0.03 µM): 105 % of control; residual kinase activity ([9]; 0.03 µM): 86 % of control; residual kinase activity ([10]; 0.03 µM): 99 % of control; residual kinase activity ([12]; 0.03 µM): 74 % of control; residual kinase activity ([13]; 0.03 µM): 128 % of control
2 | c1ccc(CNc2cc(-c3c[nH]c4ncccc34)ccn2)cc1 [meriolin 36] | 64 % of control | 3 % of control | 102 % of control | 1 % of control | 62 % of control | 35 % of control | 93 % of control | 77 % of control | 19 % of control | 41 % of control | 130 % of control | 36 % of control | 127 % of control | residual kinase activity ([1]; 3 µM): 23 % of control; residual kinase activity ([2]; 3 µM): 0 % of control; residual kinase activity ([3]; 3 µM): 75 % of control; residual kinase activity ([4]; 3 µM): 1 % of control; residual kinase activity ([5]; 3 µM): 25 % of control; residual kinase activity ([6]; 3 µM): 6 % of control; residual kinase activity ([7]; 3 µM): 73 % of control; residual kinase activity ([8]; 3 µM): 16 % of control; residual kinase activity ([9]; 3 µM): 3 % of control; residual kinase activity ([10]; 3 µM): 7 % of control; residual kinase activity ([11]; 3 µM): 87 % of control; residual kinase activity ([12]; 3 µM): 9 % of control; residual kinase activity ([13]; 3 µM): 126 % of control
